The results in this text go back to patent US10766869B2, “Triazoles for the treatment of demyelinating dieases” (Vertex Pharmaceuticals Incorporated, priority 2015, dated 2020).

The assay has as its system primary rat mixed cortical cells. Description: In vitro myelination assay (MBP positive myelin strands, fold myelin pixels above background). To be noted: Rattus norvegicus; for fold induction at 1 µM: 1.0 μM compound; for fold induction at 10 µM: 10.0 μM compound. In kind it is cell-based. From the text: In Vitro Myelination Assay
Compounds were screened for their ability to induce myelination using a primary rat mixed cortical cell culture assay, which contains neurons, oligodendrocyte precursor cells, oligodendrocytes, astrocytes and microglia. The assay quantifies myelination by measuring myelin basic protein (MBP) immunofluorescent positive myelin strands from images taken using a Cellomics Array Scan (model Arrayscan VTI HCS Reader) or a Molecular Devices Image Xpress (model IXM XL) high content imager. The myelin strands were quantitated using a custom created myelin detection software program. Test compounds were dissolved in DMSO to make a 10 mM initial stock solution. Dilutions were made in myelination medium to obtain the final solutions for the assay and were tested in primary rat mixed cortical cells at selected doses.
Primary rat mixed cortical cells were prepared from harvested cerebral cortices from postnatal day 1 (P1) rats (P1 Rat CD® IGS pups) were purchased from Charles River) in Complete Dissociation Medium, wherein the meninges were removed and the cortical tissue chopped with a razor blade into ˜1 mm^3 pieces. Tissue from 1-3 pups was collected and placed into 15 ml conical tubes in a total volume of 5 ml of Complete Dissociation Medium. Activated papain (3 ml) was added to each 15 ml conical tube and tissue was incubated at 37° C. for 30 minutes. After the 30 minute incubation, DNase (Sigma D4527; 75 μl of a 1 mg/ml stock) was added to each tube, followed by mechanical trituration using a 2 ml serological pipette and autopipettor to gently dissociate the tissue. Following trituration, larger tissue pieces were allowed to settle by gravity, and the supernatant containing dissociated cells was transferred to a 50 ml conical tube with 4 ml of trypsin inhibitor. Cells were pelleted by centrifugation, resuspended in myelination medium and filtered through a 40 μm filter. Cells were then seeded in 96-well plates (BD Biosciences, Black, PDL-coated, Cat. No. 356640) at 87,500-95,000 cells/well in a final volume of 200 μl of Myelination Medium in the presence or absence of compound and cultured for 14 days in a humidified 37° C. incubator with 5% CO2. Half the medium was removed and replaced with fresh medium containing 1× compound on days 6 and 10. Using a Biotek automatic plate washer (model Biomek® FXP Laboratory Automation Workstation), cells were fixed with 4% paraformaldehyde on day 14, washed with PBS and blocked in 5% normal goat serum (Vector Laboratories, S-1000) in 0.1% PBS-TritonX-100 (PBST) for 1 hour. Cells were stained with 1:500 anti-MBP (Covance, cat # SMI99) primary antibody in 1% normal goat serum in 0.1% PBST for 2 hours at room temperature followed by 2 washes with PBST. A final incubation in secondary antibody (1:1000, Invitrogen, Alexa-488 anti-mouse IgG2b) and 1:10,000 Hoechst dye in 1% normal goat serum in 0.1% PBST was performed for 2 hours at room temperature. Plates were washed with PBS and then scanned on a Cellomics Array Scan using a 10× objective (25 images per well) or the Image Xpress using a 10× objective (9 image per well). Images were analyzed using Vertex myelin detection software (described below) to quantify total MBP myelin pixels per well. Fold myelin pixels above background at two concentrations (1.0 μM and 10.0 μM) relative to baseline of no added compound are reported below in Table 4. Standard deviation for each compound concentration was calculated using all replicates and using a standard deviation formula commonly used in the art.
One of skill in the art would recognize that for this type of primary neuronal mixed cell assay variability between different assay runs is to be expected even though the protocol is the same for each assay run. For instance, variability may be due to small differences in cell viability, cell density, age of the animals, etc.
Vertex Myelin Detection Software: […]

Setting [1] is: relative to baseline of no added compound, read-out: Fold myelin pixels above background.
Where [2] appears, read: read-out: Fold myelin pixels above background relative to baseline of no added compound.
Where [3] appears, read: relative to baseline of no added compound, read-out: Fold myelin pixels above background, 1.0 μM.
[4] abbreviates: relative to baseline of no added compound, read-out: Fold myelin pixels above background, 10.0 μM.

Where two headings read alike, the source gives them in different places.

For `Cc1cc(Nc2ncn(-c3cc(F)cc(F)c3)n2)nc(N2CCN(C(C)(C)C)CC2)c1` [Compound 702, 6-(4-tert-butylpiperazin-1-yl)-N-[1-(3,5-difluorophenyl)-1,2,4-triazol-3-yl]-4-methyl-pyridin-2-amine], under setting [1], the fold induction at 1 µM lay within 10 to 100 and the fold induction at 10 µM was 10 to 100.

Turning to `Cc1cc(Nc2ncn(-c3cc(F)cc(F)c3)n2)cc(N2CCC(C3CCOC3)C2)c1` (stereo not shown) [Compound 1083, 1-(3,5-difluorophenyl)-N-[3-methyl-5-(3-tetrahydrofuran-3-ylpyrrolidin-1-yl)phenyl]-1,2,4-triazol-3-amine], under setting [2], the fold induction at 1 µM was 1 to 10 and the fold induction at 10 µM was no more than 1.

For `Cc1cc(Nc2ncn(-c3cc(F)cc(F)c3)n2)cc([C@H]2CCN(C3COC3)C[C@@H]2O)c1` (racemic) [Compound 282, (3R,4R)-4-[3-[[1-(3,5-difluorophenyl)-1,2,4-triazol-3-yl]amino]-5-methyl-phenyl]-1-(oxetan-3-yl)piperidin-3-ol; (3S,4S)-4-[3-[[1-(3,5-difluorophenyl)-1,2,4-triazol-3-yl]amino]-5-methyl-phenyl]-1-(oxetan-3-yl)piperidin-3-ol], under setting [3], the fold induction at 1 µM is 10 to 100. In addition, the fold induction at 10 µM under setting [4] lay in the range of 10 to 100.

Consider `Cc1cc(Nc2ncn(-c3ccc(F)c(F)c3)n2)c(F)c(OC2CCOC2)c1` (stereo not shown) [Compound 978, 1-(3,4-difluorophenyl)-N-(2-fluoro-5-methyl-3-tetrahydrofuran-3-yloxy-phenyl)-1,2,4-triazol-3-amine], for which, under setting [2], the fold induction at 1 µM was 10 to 100 and the fold induction at 10 µM fell in the range of 1 to 10.

For the compound `Fc1cc(-n2cnc(Nc3cc(Cl)cc(N4CC(N5CCOCC5)C4)c3)n2)ccn1` [Compound 819, N-[3-chloro-5-(3-morpholinoazetidin-1-yl)phenyl]-1-(2-fluoro-4-pyridyl)-1,2,4-triazol-3-amine], under setting [2], the fold induction at 1 µM was in the range of 10 to 100 and the fold induction at 10 µM lay within 1 to 10.

Turning to `Cc1cc(Nc2ncn(-c3ccccc3)n2)cc(N2CCN3CCC[C@@H]3C2)c1` [Compound 157, N-[3-[(8aR)-3,4,6,7,8,8a-hexahydro-1H-pyrrolo[1,2-a]pyrazin-2-yl]-5-methyl-phenyl]-1-phenyl-1,2,4-triazol-3-amine], the fold induction at 1 µM under setting [3] lay within 1000 to 10000. The fold induction at 10 µM under setting [4] lay within 1000 to 10000.

For `Cc1cc(Nc2ncn(-c3cc(F)cc(F)c3)n2)cc(C2CN(C3COC3)CC(C)O2)c1` (stereo not shown) [Compound 663, 1-(3,5-difluorophenyl)-N-[3-methyl-5-[6-methyl-4-(oxetan-3-yl)morpholin-2-yl]phenyl]-1,2,4-triazol-3-amine], under setting [1], the fold induction at 1 µM lay in the range of 10 to 100 and the fold induction at 10 µM is no more than 1.

As to `COCCCN1CCN(c2cc(C)cc(Nc3ncn(-c4cc(F)cc(F)c4)n3)c2)CC1` [Compound 850, 1-(3,5-difluorophenyl)-N-[3-[4-(3-methoxypropyl)piperazin-1-yl]-5-methyl-phenyl]-1,2,4-triazol-3-amine], under setting [2], the fold induction at 1 µM fell in the range of 10 to 100 and the fold induction at 10 µM was no more than 1.

With `CC(=O)N1CC(Oc2cc(C)c(C)c(Nc3ncn(-c4cc(F)cc(F)c4)n3)c2)C1` [Compound 971, 1-[3-[3-[[1-(3,5-difluorophenyl)-1,2,4-triazol-3-yl]amino]-4,5-dimethyl-phenoxy]azetidin-1-yl]ethanone], under setting [2], the fold induction at 1 µM lay within 1 to 10 and the fold induction at 10 µM was in the range of 1 to 10.

On to `Cc1cc(Nc2ncn(-c3ccccc3)n2)cc(N2CCN(C(C)C)CC2)c1` [Compound 326, N-[3-(4-isopropylpiperazin-1-yl)-5-methyl-phenyl]-1-phenyl-1,2,4-triazol-3-amine], for which the fold induction at 1 µM under setting [3] lay in the range of 1000 to 10000. For the same compound, under setting [4], the fold induction at 10 µM is no more than 1.

For `CC(C)(C)c1cc(Nc2ncn(-c3cnccn3)n2)cc(N2CCN(C3COC3)CC2)c1` [Compound 288, N-[3-tert-butyl-5-[4-(oxetan-3-yl)piperazin-1-yl]phenyl]-1-pyrazin-2-yl-1,2,4-triazol-3-amine], the fold induction at 1 µM under setting [3] was in the range of 1000 to 10000. Further, the fold induction at 10 µM under setting [4] is 1000 to 10000.

`Cc1cc(Nc2ncn(-c3cc(F)cc(F)c3)n2)c(F)c(N2CCN(CCO)CC2)c1` [Compound 1043, 2-[4-[3-[[1-(3,5-difluorophenyl)-1,2,4-triazol-3-yl]amino]-2-fluoro-5-methyl-phenyl]piperazin-1-yl]ethanol]: under setting [2], the fold induction at 1 µM was in the range of 10 to 100 and the fold induction at 10 µM was no more than 1.

Regarding `Cc1cc(Nc2ncn(-c3cc(F)cc(F)c3)n2)cc(NC2CCN(CC(F)F)CC2)c1` [Compound 992, N1-[1-(2,2-difluoroethyl)-4-piperidyl]-N3-[1-(3,5-difluorophenyl)-1,2,4-triazol-3-yl]-5-methyl-benzene-1,3-diamine], under setting [2], the fold induction at 1 µM fell in the range of 1 to 10 and the fold induction at 10 µM lay in the range of 1 to 10.

For the compound `Cc1cc(Nc2ncn(-c3cc(F)cc(F)c3)n2)cc(NC2CCN(C3COC3)C2)c1` (stereo not shown) [Compound 472, N3-[1-(3,5-difluorophenyl)-1,2,4-triazol-3-yl]-5-methyl-N1-[1-(oxetan-3-yl)pyrrolidin-3-yl]benzene-1,3-diamine], under setting [1], the fold induction at 1 µM fell in the range of 100 to 1000 and the fold induction at 10 µM is no more than 1.

On to `CC(=O)N1CCC(c2cc(C)cc(Nc3ncn(-c4ccccc4)n3)c2)CC1` [Compound 194, 1-[4-[3-methyl-5-[(1-phenyl-1,2,4-triazol-3-yl)amino]phenyl]-1-piperidyl]ethanone], for which, under setting [3], the fold induction at 1 µM is 1000 to 10000. The fold induction at 10 µM under setting [4] is no more than 1.

Turning to `Cc1cc(Nc2ncn(-c3cc(F)cc(F)c3)n2)c(F)c(NC2CCCC2N2CCOCC2)c1` (stereo not shown) [Compound 1007, N3-[1-(3,5-difluorophenyl)-1,2,4-triazol-3-yl]-2-fluoro-5-methyl-N1-(2-morpholinocyclopentyl)benzene-1,3-diamine], under setting [2], the fold induction at 1 µM was in the range of 1 to 10 and the fold induction at 10 µM lay in the range of 10 to 100.

As for `Cc1cc(Nc2ncn(-c3cc(F)cc(F)c3)n2)cc(N2CC(F)(CO)C2)c1` [Compound 1079, [1-[3-[[1-(3,5-difluorophenyl)-1,2,4-triazol-3-yl]amino]-5-methyl-phenyl]-3-fluoro-azetidin-3-yl]methanol], under setting [2], the fold induction at 1 µM lay in the range of 10 to 100 and the fold induction at 10 µM is no more than 1.

Consider `CS(=O)(=O)c1cc(Nc2ncn(-c3cccc(F)c3)n2)cc(N2CCN(C3COC3)CC2)c1` [Compound 361, 1-(3-fluorophenyl)-N-[3-methylsulfonyl-5-[4-(oxetan-3-yl)piperazin-1-yl]phenyl]-1,2,4-triazol-3-amine], for which the fold induction at 1 µM under setting [3] lay in the range of 100 to 1000. In addition, under setting [4], the fold induction at 10 µM was no more than 1.

`COCCN1CCC(Nc2cc(C)cc(Nc3ncn(-c4cc(F)cc(F)c4)n3)c2)CC1` [Compound 930, N3-[1-(3,5-difluorophenyl)-1,2,4-triazol-3-yl]-N1-[1-(2-methoxyethyl)-4-piperidyl]-5-methyl-benzene-1,3-diamine]: under setting [2], the fold induction at 1 µM was 10 to 100 and the fold induction at 10 µM is no more than 1.

For the compound `Cc1cc(NC(=O)NC2CCC2)cc(Nc2ncn(-c3ccccc3)n2)c1` [Compound 910, 1-cyclobutyl-3-[3-methyl-5-[(1-phenyl-1,2,4-triazol-3-yl)amino]phenyl]urea], under setting [2], the fold induction at 1 µM was 1 to 10 and the fold induction at 10 µM was in the range of 10 to 100.
